Data published in patent US20230399311A1, “POLYMORPHS OF SUBSTITUTED ISOQUINOLINE-BASED RHO KINASE INHIBITORS” (BioAxone BioSciences, Inc., priority 2022, published 2023).
In brackets after ≈: the same amount, converted by molar mass. Several values for one entry are separate records, joined by “and”; a condition that tells them apart may be missing. Equal entries are not always repeated. Where two headings read alike, the source gives them in different places.

Assays:
[1] = pKa by iterative titration with 1M sodium hydroxide; format: physicochemical; settings: free base form; for pKa: Measurements #1-#3
Procedure: The pKa of NRL-1049 in free base form was measured in triplicate by iterative titration with 1M sodium hydroxide solution. A plot of the pH versus the volume of the titrant was used to calculate the pKa, wherein the pKa was taken as 50% of the inflection point.

[2] = Solubility of Form A in various solvents at 25° C. and 50° C.; format: physicochemical; settings: thermodynamic from solid
Procedure: The solubility of Form A of Compound 1 was evaluated at 25° C. and 50° C. in various solvents.

With `CC(N)C1CCN(S(=O)(=O)c2cccc3cnccc23)CC1` (stereo not shown) [NRL-1049] the pKa average ([1]; Sample 1) was 1.8, the pKa ([1]; Sample 1) was 1.73 and 1.81 and 1.83 and the pKa average ([1]; Sample 2) was 2.0. For the same molecule, the pKa average ([1]; Sample 3) was 1.9 and the pKa ([1]; Sample 3) was 1.89 and 1.87 and 1.98.
For `C[C@@H](N)C1CCN(S(=O)(=O)c2cccc3cnccc23)CC1` [NRL-1049 (R), (R)-1-(1-(isoquinolin-5-ylsulfonyl)piperidin-4-yl)ethan-1-amine], the solubility ([2]; 1,4-dioxane, 25 °C, organic solvent or mixture, read-out: Solubility at 25° C.) was 1500 µg/mL (≈ 4.7 mM), the solubility ([2]; 1,4-dioxane, 50 °C, organic solvent or mixture, read-out: Solubility at 50° C.) was 11900 µg/mL (≈ 37.3 mM) and the solubility ([2]; 2-methoxyethanol, 25 °C, organic solvent or mixture, read-out: Solubility at 25° C.) was greater than 50000 µg/mL. The solubility ([2]; 2-methoxyethanol, 50 °C, organic solvent or mixture, read-out: Solubility at 50° C.) was greater than 50000 µg/mL, the solubility ([2]; acetone, 25 °C, organic solvent or mixture, read-out: Solubility at 25° C.) was 15900 µg/mL (≈ 49.8 mM) and the solubility ([2]; acetone, 50 °C, organic solvent or mixture, read-out: Solubility at 50° C.) was 45300 µg/mL (≈ 142 mM). The solubility ([2]; acetonitrile, 25 °C, organic solvent or mixture, read-out: Solubility at 25° C.) was less than 1000 µg/mL, the solubility ([2]; acetonitrile, 50 °C, organic solvent or mixture, read-out: Solubility at 50° C.) was less than 1000 µg/mL and the solubility ([2]; benzyl alcohol, 25 °C, organic solvent or mixture, read-out: Solubility at 25° C.) was 156000 µg/mL (≈ 488 mM). It also gave a solubility ([2]; chloroform, 25 °C, organic solvent or mixture, read-out: Solubility at 25° C.) greater than 50000 µg/mL, a solubility ([2]; chloroform, 50 °C, organic solvent or mixture, read-out: Solubility at 50° C.) greater than 50000 µg/mL and a solubility ([2]; dichloromethane, 25 °C, organic solvent or mixture, read-out: Solubility at 25° C.) of less than 1000 µg/mL. For the same molecule, the solubility ([2]; dichloromethane, 50 °C, organic solvent or mixture, read-out: Solubility at 50° C.) was less than 1000 µg/mL, the solubility ([2]; dimethyl sulfoxide, 25 °C, organic solvent or mixture, read-out: Solubility at 25° C.) was greater than 50000 µg/mL and the solubility ([2]; dimethyl sulfoxide, 50 °C, organic solvent or mixture, read-out: Solubility at 50° C.) was greater than 50000 µg/mL. The solubility ([2]; dimethylformamide, 25 °C, organic solvent or mixture, read-out: Solubility at 25° C.) was 39300 µg/mL (≈ 123 mM), the solubility ([2]; dimethylformamide, 50 °C, organic solvent or mixture, read-out: Solubility at 50° C.) was greater than 50000 µg/mL and the solubility ([2]; ethanol, 25 °C, organic solvent or mixture, read-out: Solubility at 25° C.) was 12300 µg/mL (≈ 38.5 mM). It also gave a solubility ([2]; ethanol, 50 °C, organic solvent or mixture, read-out: Solubility at 50° C.) of 25300 µg/mL (≈ 79.2 mM), a solubility ([2]; ethyl acetate, 25 °C, organic solvent or mixture, read-out: Solubility at 25° C.) of less than 1000 µg/mL and a solubility ([2]; ethyl acetate, 50 °C, organic solvent or mixture, read-out: Solubility at 50° C.) of less than 1000 µg/mL. The solubility ([2]; ethyl formate, 25 °C, organic solvent or mixture, read-out: Solubility at 25° C.) was 13700 µg/mL (≈ 42.9 mM), the solubility ([2]; ethyl formate, 50 °C, organic solvent or mixture, read-out: Solubility at 50° C.) was greater than 50000 µg/mL and the solubility ([2]; iso-butyl acetate, 25 °C, organic solvent or mixture, read-out: Solubility at 25° C.) was less than 1000 µg/mL. The solubility ([2]; iso-butyl acetate, 50 °C, organic solvent or mixture, read-out: Solubility at 50° C.) was less than 1000 µg/mL, the solubility ([2]; iso-propanol, 25 °C, organic solvent or mixture, read-out: Solubility at 25° C.) was 500 µg/mL (≈ 1.57 mM) and the solubility ([2]; iso-propanol, 50 °C, organic solvent or mixture, read-out: Solubility at 50° C.) was 14700 µg/mL (≈ 46 mM). The solubility ([2]; iso-propyl acetate, 25 °C, organic solvent or mixture, read-out: Solubility at 25° C.) was less than 1000 µg/mL, the solubility ([2]; iso-propyl acetate, 50 °C, organic solvent or mixture, read-out: Solubility at 50° C.) was less than 1000 µg/mL and the solubility ([2]; medium chain triglyceride, 25 °C, oil or lipid, read-out: Solubility at 25° C.) was 100 µg/mL (≈ 0.313 mM). The solubility ([2]; methanol, 25 °C, organic solvent or mixture, read-out: Solubility at 25° C.) was greater than 50000 µg/mL, the solubility ([2]; methanol, 50 °C, organic solvent or mixture, read-out: Solubility at 50° C.) was greater than 50000 µg/mL and the solubility ([2]; methyl ethyl ketone, 25 °C, organic solvent or mixture, read-out: Solubility at 25° C.) was less than 1000 µg/mL. For the same molecule, the solubility ([2]; methyl ethyl ketone, 50 °C, organic solvent or mixture, read-out: Solubility at 50° C.) was 1500 µg/mL (≈ 4.7 mM), the solubility ([2]; methyl iso-butyl ketone, 25 °C, organic solvent or mixture, read-out: Solubility at 25° C.) was less than 1000 µg/mL and the solubility ([2]; methyl iso-butyl ketone, 50 °C, organic solvent or mixture, read-out: Solubility at 50° C.) was less than 1000 µg/mL. The solubility ([2]; n-butyl alcohol, 25 °C, organic solvent or mixture, read-out: Solubility at 25° C.) was 1600 µg/mL (≈ 5.01 mM), the solubility ([2]; n-butyl alcohol, 50 °C, organic solvent or mixture, read-out: Solubility at 50° C.) was 7500 µg/mL (≈ 23.5 mM) and the solubility ([2]; n-propanol, 25 °C, organic solvent or mixture, read-out: Solubility at 25° C.) was 1600 µg/mL (≈ 5.01 mM). For the same molecule, the solubility ([2]; n-propanol, 50 °C, organic solvent or mixture, read-out: Solubility at 50° C.) was 23400 µg/mL (≈ 73.3 mM), the solubility ([2]; o-xylene, 25 °C, organic solvent or mixture, read-out: Solubility at 25° C.) was less than 1000 µg/mL and the solubility ([2]; o-xylene, 50 °C, organic solvent or mixture, read-out: Solubility at 50° C.) was less than 1000 µg/mL. For the same molecule, the solubility ([2]; polyethylene glycol 300, 25 °C, organic solvent or mixture, read-out: Solubility at 25° C.) was 11000 µg/mL (≈ 34.4 mM), the solubility ([2]; propylene glycol, 25 °C, organic solvent or mixture, read-out: Solubility at 25° C.) was 84000 µg/mL (≈ 263 mM) and the solubility ([2]; sesame oil, 25 °C, oil or lipid, read-out: Solubility at 25° C.) was 40 µg/mL (≈ 0.125 mM). It also gave a solubility ([2]; tert-butyl methyl ether, 25 °C, organic solvent or mixture, read-out: Solubility at 25° C.) of less than 1000 µg/mL, a solubility ([2]; tert-butyl methyl ether, 50 °C, organic solvent or mixture, read-out: Solubility at 50° C.) of less than 1000 µg/mL and a solubility ([2]; tetrahydrofuran, 25 °C, organic solvent or mixture, read-out: Solubility at 25° C.) of 1600 µg/mL (≈ 5.01 mM). It also gave a solubility ([2]; tetrahydrofuran, 50 °C, organic solvent or mixture, read-out: Solubility at 50° C.) of 2000 µg/mL (≈ 6.26 mM), a solubility ([2]; toluene, 25 °C, organic solvent or mixture, read-out: Solubility at 25° C.) of less than 1000 µg/mL and a solubility ([2]; toluene, 50 °C, organic solvent or mixture, read-out: Solubility at 50° C.) of less than 1000 µg/mL. For the same molecule, the solubility ([2]; water, 25 °C, water, read-out: Solubility at 25° C.) was greater than 50000 µg/mL and the solubility ([2]; water, 50 °C, water, read-out: Solubility at 50° C.) was greater than 50000 µg/mL.
